Measured values taken from publication PMC12040169 (PLOS Biology, 2025).

test: in vitro; details: human, hela cells, % viability

Row | SMILES | viability at 28.5 h, 10 µM [%]
1 | COc1ccc2c(c1)nc1n2CCC1OC(C)=O (stereo not shown) [CBK115379] | 100
2 | CCOCC1CCCN1C(=O)Nc1ccc2sc(C(=O)N(C)C)cc2c1 (stereo not shown) [CBK306601] | 98.3
3 | Cc1oc(S(=O)(=O)N(C)C)cc1C(=O)O [CBK113681] | 98.1
4 | Cc1ccc2c(c1)c(NS(C)(=O)=O)nn2Cc1ccc(C#N)cc1 [CBK048643] | 94.2
5 | O=C(NCCc1ccccc1)c1ncoc1-c1cccs1 [CBK283662] | 91.8
6 | CCOC(=O)CCCNC(=O)N1CCCC(C(=O)N(CC)CC)C1 (stereo not shown) [CBK156158] | 92.3
7 | COc1cc(/C=N/c2ccc(O)c(-c3nc4ccccc4s3)c2)ccc1OC(=O)c1ccc(Cl)cc1Cl [CBK261243] | 101
8 | CCCCOc1ccc(NC(=O)NC(=O)C2CCN(CCc3ccc(Br)cc3)CC2)cc1 [CBK035096] | 91.5
9 | Cc1cc(NC(=O)CCN2CCCCC2)no1 [CBK017079] | 99
10 | CCc1cc(NCCc2ccc(=O)[nH]c2)nc(-c2ccc(Br)cc2)n1 [CBK144610C] | 93.3
11 | Cc1cc(C(F)(F)F)n2ncc(C(=O)N3CCCC3c3ccco3)c2n1 (stereo not shown) [CBK306557] | 93.5
12 | COc1ccc(S(=O)(=O)N(C)CC(=O)Nc2ccc(S(N)(=O)=O)cc2)cc1C [CBK267333] | 93.7
13 | CSCCOc1cc(N2CCCC2)ncn1 [CBK115900] | 90
14 | O=C1Oc2nc3ccccc3cc2CN1C1CC1 [CBK282870] | 87.9
15 | CC(Cn1cncc1-c1cnn(C)c1)Oc1ccccc1Cl (stereo not shown) [CBK281737] | 105
16 | Cc1cnccc1-c1c[nH]nc1-c1cccc(CNS(=O)(=O)c2ccc(F)c(F)c2)c1 [CBK285627] | 96
17 | COc1ccc(-c2ccc(-c3cc(C(=O)O)c4ccccc4n3)o2)cc1 [CBK300542] | 75.5
18 | Cc1ccc(N2CCN(C3=NC(=O)/C(=C\c4ccc(O)c([N+](=O)[O-])c4)S3)CC2)cc1 [CBK264347] | 92.9
19 | O=C(Nc1cncc(OC2CCNCC2)n1)c1cccnc1 [CBK036375T] | 92.1
20 | CCC(C(=O)Nc1ccc(OC(C)=O)cc1C(=O)O)c1ccccc1 (stereo not shown) [CBK269685] | 94.5
21 | CC1CCN(S(=O)(=O)c2ccc(NC(=O)CN3CCOCC3)cc2)CC1 [CBK268339] | 81.4
22 | COc1cccc(/C=N/NC(=O)CSc2nnc(C)n2-c2ccccc2)c1O [CBK262758] | 80.7
23 | COCCOCCOc1ccccc1OCCOCCOC [CBK009636] | 89

Row | SMILES | viability at 28.5 h, 10 µM [%]
24 | O=C(O)CCCN1C(=O)c2ccccc2C1=O [CBK056635] | 91.7
25 | N#Cc1cccc(Cn2cc(NC(=O)NCCc3cccs3)cn2)c1 [CBK043824] | 94.9
26 | COc1cccc2c3c([nH]c12)C1(CCCN(CCc2ccc(F)cc2)C1)NCC3 (stereo not shown) [CBK039251] | 97.9
27 | O=C(CN1C(=O)N2CCN=C2c2ccc(Cl)cc21)NCC1CC1 [CBK282877] | 94.2
28 | O=C1CCCN1c1ccc(S(=O)(=O)NC2C3CCCCC32)cc1 (stereo not shown) [CBK282842] | 101
29 | CCn1c(CN2CCOCC2)nnc1SCC(=O)Nc1cc(Cl)ccc1C [CBK270183] | 93.8
30 | C#CCOc1cncc(Cl)n1 [CBK113370] | 87.7
31 | COc1ccc(C(NC(=O)C2CCN(C(=O)Oc3ccccc3)CC2)c2ccccc2C)cn1 (stereo not shown) [CBK059715] | 91.1
32 | COc1ccc2c(CN(C)Cc3cc(C)[nH]n3)cn(C)c2c1 [CBK281734] | 103
33 | CC(C)C(=O)N1CC2(CCN(CCc3c[nH]c4ccccc34)CC2)c2ccccc21 [CBK126725] | 95.6
34 | CN(CC1(C)COC1)C(=O)Cc1cccc2cccnc12 [CBK281963] | 91.7
35 | COc1ccc(Nc2cc(-c3cccc(N)c3)ncn2)c(C)c1 [CBK091035] | 97.1
36 | CCCOc1ccc(CCNc2ncnc(N)n2)cc1 [CBK262744] | 90.1
37 | Cc1cc(C)n(CCCn2cncc2-c2cn(C)nc2C)n1 [CBK281772] | 94.8
38 | CC(=O)c1ccc(NC(=O)CSc2nnc(-c3ccc4ccccc4n3)s2)cc1 [CBK269205] | 97.6
39 | Cc1cc(C(=O)N2CCC(C(=O)NC(c3cnccn3)c3ccccc3C)CC2)no1 (stereo not shown) [CBK059810] | 93.6
40 | CN(C(=O)c1cc[nH]n1)C1CCN(c2ncnc3ccccc23)CC1 [CBK305916] | 79
41 | Cc1cccc(N=C(S)N(CCN(C)C)Cc2cc3cc(C)cc(C)c3nc2O)c1 [CBK135105] | 96.2
42 | O=C(Nc1cccnc1)N1CCc2ccccc2C1 [CBK155312] | 100
43 | COC(=O)C(C)CN1CC2CCC(CC2)C1 (stereo not shown) [CBK022785C] | 106
44 | COc1cccc2cc(C(=O)NCCc3ccc(O)cc3)oc12 [CBK149802] | 93.9
45 | CCc1ccc(/C=N/N2CCN(Cc3cccc4ccccc34)CC2)cc1 [CBK262986] | 104
46 | Cc1cc(C)n(-c2ccc(N3CCC4(CC3)OCCO4)nn2)n1 [CBK305255] | 97.8

Row | SMILES | viability at 28.5 h, 10 µM [%]
47 | CC(=O)Nc1ccc(N2C(=O)CSC2c2ccccc2[N+](=O)[O-])cc1 (stereo not shown) [CBK294443] | 110
48 | COc1ccccc1-c1nnc(NC(=O)Cc2cccs2)s1 [CBK287361] | 93.5
49 | CCCCOC(=O)CCNc1n[nH]c(=O)[nH]c1=O [CBK027838] | 97.3
50 | CCCc1ccc(S(=O)(=O)N2CCOC(c3cnn(CC)c3)C2)cc1 (stereo not shown) [CBK306169] | 83.4
51 | COc1cccc(-c2nnc(SCC(=O)Nc3cc(C)on3)o2)c1 [CBK287391] | 89.9
52 | CC(C)(C)NC(=O)CN1CCC(c2ccccc2F)CC1 [CBK283499] | 92.1
53 | O=C1NCCNC(=O)C2(CCCCOc3ccccc31)CCNCC2 [CBK292074] | 108
54 | Cc1ccc2nc(NC(=O)c3cc(C)n(C)n3)sc2c1 [CBK287668] | 83.9
55 | O=C(c1cccs1)N1C[C@@H]2C[C@H](C1)c1c(-c3cncnc3)ccc(=O)n1C2 [CBK289194] | 90.7
56 | O=C(NCc1cccc2ccccc12)N1CCCC(CO)C1 (stereo not shown) [CBK156035] | 112
57 | CC(=O)Nc1cccc(-c2cnc(N)c(NC3CCOCC3)n2)c1 [CBK063845] | 107
58 | CN(C)S(=O)(=O)N1CCN(c2ccnc3cc(Cl)ccc23)CC1 [CBK269785] | 99.2
59 | O=C(CN1CCCC1c1cccs1)Nc1cccc(C(=O)NC2CC2)c1 (stereo not shown) [CBK305895] | 98.5
60 | O=C(Cn1ncc2ccccc2c1=O)N1CCC(c2ccccc2)C1 (stereo not shown) [CBK281843] | 90.7
61 | CN1CCN(C(=O)c2ccsc2NS(=O)(=O)/C=C/c2ccccc2)CC1 [CBK042267] | 104
62 | COC(=O)c1cc(C#N)c(=O)n(CC(O)COc2ccccc2)c1 (stereo not shown) [CBK304991] | 99.3
63 | Cc1nc(NS(=O)(=O)c2ccccc2)sc1NC(=O)Nn1cnnc1 [CBK266699] | 85.4
64 | Nc1ncc(-c2ccc3c(c2)OCO3)nc1NCc1ccncc1 [CBK063483] | 106
65 | O=[N+]([O-])c1ccc2c(c1)oc1ccc(S(=O)(=O)N3CCCC3)cc12 [CBK268512] | 107
66 | c1ccc(N2CCN(Cc3cncn3C3CCCCC3)CC2)nc1 [CBK307345] | 109
67 | Cc1ccc(O)c(CN[C@@H]2CCC(=O)N[C@H]2c2cc(F)cc(F)c2)c1 [CBK283132] | 94
68 | CC(C)[C@@H](CO)Nc1nc(-c2cccc3ccccc23)cnc1N [CBK063725] | 95.2
69 | CC(c1ccc(F)c(F)c1)N(C)C(=O)Cn1cnnc1[S+](C)[O-] (stereo not shown) [CBK305311] | 105

Row | SMILES | viability at 28.5 h, 10 µM [%]
70 | COc1ccc(Cl)cc1NC(=O)CCN1CCN(C)CC1 [CBK278177C] | 91
71 | Cc1ccc(OCCOc2cccc(/C=N/n3cnnc3)c2)cc1 [CBK263028] | 111
72 | CC(Cn1cncn1)C(=O)N1CCCCC1CCc1ccccc1 (stereo not shown) [CBK282265] | 109
73 | CN1CCN(C(c2ccc(O)cc2)c2nnnn2Cc2ccccc2)CC1 (stereo not shown) [CBK084719] | 94.8
74 | Nc1ccc(Cl)cc1C(O)(CCCN1CCCCC1)c1ccccc1 (stereo not shown) [CBK023107] | 98.1
75 | CCc1nc2ccc(C(=O)N(C)Cc3ccco3)cn2c1N(C)C(=O)c1ccncc1 [CBK145479] | 90.9
76 | O=C(c1ccco1)N1CCN(c2ccc(-c3cccc(Cl)c3Cl)cn2)CC1 [CBK037737] | 95.4
77 | O=C(NC1CCCCC1)NS(=O)(=O)c1ccc(CCNC(=O)c2cnc3ccccc3n2)cc1 [CBK013051] | 87.1
78 | Cc1csc2c(C3CCN(C(=O)c4cc[nH]n4)CC3)nc(C)n12 [CBK285245] | 91.9
79 | OC1CCN(c2ccc(-c3ccccc3)nn2)CC1 [CBK021753] | 83.9
80 | NC(=O)c1ccc(C(=O)OCc2ccc(-c3ccccc3)cc2)cc1 [CBK297736] | 95.7
81 | c1cncc(-c2nnc([C@H]3CCN(C4CCOCC4)C3)o2)c1 [CBK289398] | 93.5
82 | O=C(O)c1cccc2c1C(=O)N(Cc1cccnc1)C2 [CBK291193] | 119
83 | NS(=O)(=O)c1ccc(CCNC(=O)c2cc(-c3ccccc3)nc3ccccc23)cc1 [CBK264365] | 96.9
84 | C[C@]12CN(C(=O)c3ccccc3)C[C@H]1NC(=O)c1ccccc1C2=O [CBK281657] | 102
85 | Cc1ccc(S(=O)(=O)NC2CCC(C(=O)O)CC2)cc1 (stereo not shown) [CBK286929] | 96.4
86 | CCN1CC2(CCCN(Cc3nnc(-c4cccnc4)o3)C2)CCC1=O (stereo not shown) [CBK306881] | 86.4
87 | Cc1ccc(S(=O)(=O)N2CCOCC2)cc1C(=O)Oc1cccc2cccnc12 [CBK269726] | 98
88 | COc1ccc(NC(=O)N[C@H]2C[C@H]3C(=O)N[C@H](Cc4ccccc4)C(=O)N3C2)cc1 [CBK289227] | 84.7
89 | OC(CN1CCC(O)(c2ccccc2F)CC1)c1ccc(Cl)cc1 (stereo not shown) [CBK283312] | 87
90 | Cc1cc(C)n(C)c(=O)c1C(=O)NCCCc1ccc(Cl)cc1 [CBK281566] | 88.2
91 | Cc1ccccc1Nc1ccccc1C(=O)O [CBK012249] | 113
